Patent US20260250320A1, “LIPIDATED PEPTIDE INHIBITORS OF INTERLEUKIN-23 RECEPTOR” (Janssen Pharmaceutica NV, priority 2023, published 2026)
*1 amine or outer side, *2 acyl side, *3 side chain or, on linkers, in order; H or OH if unused. Where a SMILES comes first, the peptide text is derived from it. Bridges are numbered along the chain shown (N, C = ends). Roman numbers before positions name the chains, in order. Side-chain parts run from the residue outwards. [ ]: non-standard residue; d: D form. The star is where a group is joined. X14 = CC(=O)N(C)CCCC[C@H](CC(=O)C1(N*)CCOCC1)C(=O)N[C@@H](CC(N)=O)C(=O)N[C@@H](Cc1cccnc1)C(=O)N(C)CC(=O)N(C)C; X25 = C[N+](C)(C)C[C@@H](CC(=O)O)NC(=O)CCC(=O)CCCCC[C@H](N[*:1])C(=O)[*:2]; X19 = CC(C)(S[*:2])[C@H](N[*:3])C(=O)C[C@@H](Cc1ccc(OCCN)cc1)C(=O)[*:1]; X21 = NC(=O)C[C@H](N[*:1])C(=O)C[C@@H](Cc1cccnc1)C(=O)[*:2]; Me3N+(CH2)2O(CH2)2O(CH2)2CO = C[N+](C)(C)CCOCCOCCC(=O)*; PEG12 = NCCOCCOCCOCCOCCOCCOCCOCCOCCOCCOCCOCCOCCC(=O)O; Trp(7-Me) = Cc1cccc2c(C[C@H](N)C(=O)O)c[nH]c12; C22 diacid = O=C(O)CCCCCCCCCCCCCCCCCCCCC(=O)*; C18 diacid = O=C(O)CCCCCCCCCCCCCCCCC(=O)*; X6 = CN(CC[C@H](N[*:1])C(=O)[*:2])[*:3]; γGlu = O=C(O)[C@H](CCC(=O)[*:2])N[*:1]; 2Nal = N[C@@H](Cc1ccc2ccccc2c1)C(=O)O; AEF = NCCOc1ccc(C[C@H](N)C(=O)O)cc1; X2 = C[N+](C)(C)C[C@@H](CC(=O)O)N*; 3Pal = N[C@@H](Cc1cccnc1)C(=O)O; Lys(Me) = CNCCCC[C@H](N)C(=O)O; Pen = CC(C)(S)[C@H](N)C(=O)O; Suc = O=C(CCC(=O)[*:2])[*:1]; Thp = NC1(C(=O)O)CCOCC1; X1 = C[N+](C)(C)CCCCC*; AEEA = NCCOCCOCC(=O)O; Sar = CNCC(=O)O

How the values were obtained:
IL-23R = target: T1, IL-23R (Homo sapiens, UniProt Q5VWK5); test: IL23R Reporter Assay; assay type: cell-based; conditions: HEK293 cells containing IL-23R, IL-12Rβ1 and STAT-inducible firefly luciferase reporter; 10 ng/mL IL-23 (EC90); 5 h
T1 construct: HEK293 cells containing IL-23R, IL-12Rβ1 and a firefly luciferase reporter gene driven by a STAT-inducible promoter (Promega); host or cells: HEK293
T1 sequence (Q5VWK5 24-629): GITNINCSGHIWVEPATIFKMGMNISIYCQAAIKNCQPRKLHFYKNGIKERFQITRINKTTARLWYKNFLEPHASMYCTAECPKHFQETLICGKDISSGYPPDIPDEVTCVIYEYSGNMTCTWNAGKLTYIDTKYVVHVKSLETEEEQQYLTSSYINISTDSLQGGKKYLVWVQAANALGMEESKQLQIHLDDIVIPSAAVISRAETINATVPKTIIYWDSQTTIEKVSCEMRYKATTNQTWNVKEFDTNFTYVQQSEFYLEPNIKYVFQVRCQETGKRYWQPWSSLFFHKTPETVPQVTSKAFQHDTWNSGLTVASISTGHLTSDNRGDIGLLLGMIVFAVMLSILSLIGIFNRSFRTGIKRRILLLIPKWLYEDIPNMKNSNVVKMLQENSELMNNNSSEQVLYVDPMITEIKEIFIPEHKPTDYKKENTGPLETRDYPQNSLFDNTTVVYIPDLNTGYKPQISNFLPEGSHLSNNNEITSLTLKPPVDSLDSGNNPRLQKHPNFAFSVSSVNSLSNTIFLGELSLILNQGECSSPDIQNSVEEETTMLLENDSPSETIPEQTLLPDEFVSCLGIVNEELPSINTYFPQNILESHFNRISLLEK
Summary of the method: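 IC50 values were fitted with a 4-parameter Hill equation to luciferase signal, scaled between IL-23-only wells (0% inhibition) and 30 μM reference inhibitor (100%). The readout was a STAT-inducible reporter in IL-23R/IL-12Rβ1 HEK293 cells, stimulated with added 10 ng/mL IL-23 (EC90) for 5 h at 37° C and developed with BioGlo.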

[1] = test system: IL-23-stimulated phosphorylated STAT3 in peripheral blood mononuclear cells (PBMCs); test: PBMC pSTAT3 Assay; assay type: cell-based; conditions: PBMCs from healthy donors; 30 min preincubation with peptide; IL-23 5 ng/mL for 30 min; phospho-STAT3 by MSD
Summary of the method: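 Phospho-STAT3 quantified by Meso Scale assay in lysates of PBMCs exposed to IL-23 (5 ng/mL, 30 min, 37 °C) after 30 min peptide pretreatment. Cells were cryopreserved donor PBMCs activated 4 days with anti-CD3 plus IL-1β (100 ng/mL) and starved ~4 h; IC50 reported.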

| SMILES | IC50 (IL-23R) [nM] | IC50 [1] [nM] |
| --- | --- | --- |
| CC(=O)NCCCC[C@@H]1NC(=O)[C@H](Cc2c[nH]c3c(C)cccc23)NC(=O)[C@H]([C@@H](C)O)NC(=O)[C@H](CCCCCC(=O)CCC(=O)N[C@H](CC(=O)O)C[N+](C)(C)C)NC(=O)[C@@H](NC(=O)[C@@H](CCCNC(=N)N)NC(C)=O)C(C)(C)SSC(C)(C)[C@@H](C(=O)C[C@@H](Cc2ccc(OCCN)cc2)C(=O)N[C@@H](Cc2ccc3ccccc3c2)C(=O)NC2(C(=O)N[C@@H](CCCCNC(=O)COCCOCCNC(=O)COCCOCCNC(=O)CC[C@H](NC(=O)CCCCCCCCCCCCCCCCC(=O)O)C(=O)O)C(=O)N[C@@H](CC(N)=O)C(=O)N[C@@H](Cc3cccnc3)C(=O)N(C)CC(N)=O)CCOCC2)NC1=O [compound 37, MeCO-r-Pen(3)-K(d)-T-7MeW-K(Ac)-Pen(3)-AEF-2Nal-THP-K(PEG2PEG2gEC18OH)-N-3Pya-Sar-CONH2] (I: [2Nal][Thp]K([AEEA-AEEA-γGlu-C18 diacid])N[3Pal][Sar]-NH2 / II: Ac-[dR][Pen][X25]T[Trp(7-Me)]K(Ac); linker I:N-II:2-II:C via X19) | < 50 | < 0.5 |
| CC(=O)NCCCC[C@@H]1NC(=O)[C@H](Cc2c[nH]c3c(C)cccc23)NC(=O)[C@H]([C@@H](C)O)NC(=O)[C@H](CC(N)=O)NC(=O)[C@@H](NC(C)=O)C(C)(C)SSC(C)(C)[C@@H](C(=O)N[C@@H](Cc2ccc(OCCN)cc2)C(=O)N[C@@H](Cc2ccc3ccccc3c2)C(=O)NC2(C(=O)N[C@@H](CCC(=O)O)C(=O)N[C@@H](CC(N)=O)C(=O)N[C@@H](Cc3cccnc3)C(=O)N(C)CC(=O)N[C@@H](CCCCNC(=O)COCCOCCNC(=O)COCCOCCNC(=O)CC[C@H](NC(=O)CCCCCCCCCCCCCCCCC(=O)O)C(=O)O)C(N)=O)CCOCC2)NC1=O [compound 160, cPEG3aCO-r-Pen(3)-N-T-7MeW-K(Ac)-Pen(3)-AEF-2Nal-THP-E-N-3Pya-Sar-K(PEG2PEG2gEC18OH)-CONH2] | 50 to 500 | < 0.5 |
| CC(=O)N(C)CCCC[C@H](CC(=O)C1(NC(=O)[C@H](Cc2ccc3ccccc3c2)NC(=O)[C@H](Cc2ccc(OCCCCC[N+](C)(C)C)cc2)NC(=O)[C@H]2NC(=O)[C@H](CCCCN(C)C(C)=O)NC(=O)[C@H](Cc3c[nH]c4c(C)cccc34)NC(=O)[C@H]([C@@H](C)O)NC(=O)[C@H](CC(=O)N(C)C)NC(=O)[C@@H](NC(=O)COCCOCCNC(=O)COCCOCCNC(=O)CC[C@H](NC(=O)CCCCCCCCCCCCCCCCCCCCC(=O)O)C(=O)O)C(C)(C)SSC2(C)C)CCOCC1)C(=O)N[C@@H](CC(N)=O)C(=O)N[C@@H](Cc1cccnc1)C(=O)N(C)CC(=O)N(C)C [compound 119, HOC20gEPEG2PEG2CO-Pen(3)-N(N(Me)2)-T-7MeW-K(NMeAc)-Pen(3)-TMAPF-2Nal-THP-K(NMeAc)-N-3Pya-Sar-CON(Me)2] ({C22 diacid-γGlu-AEEA-AEEA}-[Pen]D(NMe2)T[Trp(7-Me)][Lys(Me)](Ac)[Pen]Y(X1)[2Nal]-X14; disulfide 1-6) | < 50 | < 0.5 |
| CC(=O)NCCCC[C@@H]1NC(=O)[C@H](Cc2c[nH]c3c(C)cccc23)NC(=O)[C@H]([C@@H](C)O)NC(=O)[C@H](CCCCNC(=O)CCOCCOCCOCCOCCOCCOCCOCCOCCOCCOCCOCCOCCNC(=O)CC[C@H](NC(=O)CCCCCCCCCCCCCCCCC(=O)O)C(=O)O)NC(=O)[C@@H](NC(=O)[C@@H](CCCNC(=N)N)NC(C)=O)C(C)(C)SSC(C)(C)[C@@H](C(=O)N[C@@H](Cc2ccc(OCCN)cc2)C(=O)N[C@@H](Cc2ccc3ccccc3c2)C(=O)NC2(C(=O)N[C@@H](CCC(=O)O)C(=O)N[C@@H](CC(N)=O)C(=O)N[C@@H](Cc3cccnc3)C(=O)N(C)CC(N)=O)CCOCC2)NC1=O [compound 99, MeCO-r-Pen(3)-K(PEG12gEC20OH)-T-7MeW-K(Ac)-Pen(3)-AEF-2Nal-THP-E-N-3Pya-Sar-CONH2] (Ac-[dR][Pen]K([PEG12-γGlu-C18 diacid])T[Trp(7-Me)]K(Ac)[Pen][AEF][2Nal][Thp]EN[3Pal][Sar]-NH2; disulfide 2-7) | < 50 | < 0.5 |
| CC(=O)N[C@H](CCCNC(=N)N)C(=O)N[C@@H]1C(=O)N[C@@H](CC(N)=O)C(=O)N[C@@H]([C@@H](C)O)C(=O)N[C@@H](Cc2c[nH]c3c(C)cccc23)C(=O)N[C@@H](CCCCNC(=O)COCCOCCNC(=O)COCCOCCNC(=O)CC[C@H](NC(=O)CCCCCCCCCCCCCCCCC(=O)O)C(=O)O)C(=O)N[C@H](C(=O)N[C@@H](Cc2ccc(OCCN)cc2)C(=O)N[C@@H](Cc2ccc3ccccc3c2)C(=O)NC2(C(=O)N[C@@H](CCCCN(C)C(=O)CCOCCOCC[N+](C)(C)C)C(=O)N[C@@H](CC(N)=O)C(=O)C[C@@H](Cc3cccnc3)C(=O)N(C)CC(N)=O)CCOCC2)C(C)(C)SSC1(C)C [compound 79, MeCO-r-Pen(3)-N-T-7MeW-K(PEG2PEG2gEC18OH)-Pen(3)-AEF-2Nal-THP-K(NMecPEG3a)-N-3Pya-Sar-CONH2] (Ac-[dR][Pen]NT[Trp(7-Me)]K([AEEA-AEEA-γGlu-C18 diacid])[Pen][AEF][2Nal][Thp][Lys(Me)](Me3N+(CH2)2O(CH2)2O(CH2)2CO)[X21][Sar]-NH2; disulfide 2-7) | 50 to 500 | < 0.5 |
| CC(=O)NCCCC[C@@H]1NC(=O)[C@H](Cc2c[nH]c3c(C)cccc23)NC(=O)[C@H]([C@@H](C)O)NC(=O)[C@H](CC(N)=O)NC(=O)[C@@H](NC(=O)O)CCCC[C@@H](C(=O)N[C@@H](Cc2ccc(OCCN)cc2)C(=O)N[C@@H](Cc2ccc3ccccc3c2)C(=O)NC2(C(=O)N[C@@H](CCC(=O)O)C(=O)N[C@@H](CC(N)=O)C(=O)N[C@@H](Cc3cccnc3)C(=O)N(C)CC(=O)C[C@@H](CCCCNC(=O)COCCOCCNC(=O)COCCOCCNC(=O)CC[C@H](NC(=O)CCCCCCCCCCCCCCCC(=O)O)C(=O)O)C(=O)NCCOCCOCC[N+](C)(C)C)CCOCC2)NC1=O [compound 150, MeCO-Pen(3)-N-T-7MeW-K(Ac)-Pen(3)-AEF-2Nal-THP-E-N-3Pya-Sar-K(PEG2PEG2gEC18OH)-CONH(PEG3a)] | ≥ 500 | ≥ 5 |
| CC(=O)NCCCC[C@@H]1NC(=O)[C@H](CC2CNc3c(C)cccc32)NC(=O)[C@H]([C@@H](C)O)NC(=O)[C@H](CC(N)=O)NC(=O)[C@@H](NC(C)=O)C(C)(C)SSC(C)(C)[C@@H](C(=O)N[C@@H](Cc2ccc(OCCN)cc2)C(=O)N[C@@H](Cc2ccc3ccccc3c2)C(=O)NC2(C(=O)N[C@@H](CCCCNC(=O)CCOCCOCCOCCOCCOCCOCCOCCOCCOCCOCCOCCOCCNCCC[C@H](NC(=O)CCCCCCCCCCCCCCCCC(=O)O)C(=O)O)C(=O)N[C@@H](C)C(=O)N[C@@H](Cc3ccccc3)C(=O)N(C)CC(N)=O)CCOCC2)NC1=O (stereo partly drawn) [compound 100, MeCO-Pen(3)-N-T-7MeW-K(Ac)-Pen(3)-AEF-2Nal-THP-K(PEG12gEC18OH)-N-3Pya-Sar-CONH2] | < 50 | < 0.5 |
| Cc1cccc2c(C[C@@H]3NC(=O)[C@H]([C@@H](C)O)NC(=O)[C@H](CC(=O)N(C)C)NC(=O)[C@@H](NC(=O)COCCOCCNC(=O)COCCOCCNC(=O)CC[C@H](NC(=O)CCCCCCCCCCCCCCCCC(=O)O)C(=O)O)C(C)(C)SSC[C@@H](C(=O)N[C@@H](Cc4ccc(OCCN)cc4)C(=O)N[C@@H](Cc4ccc5ccccc5c4)C(=O)NC4(C(=O)N[C@@H](CCN(C)C(=O)CCC(=O)N[C@H](CC(=O)O)C[N+](C)(C)C)C(=O)N[C@@H](CC(N)=O)C(=O)N[C@@H](Cc5cccnc5)C(=O)N(C)CC(=O)N(C)C)CCOCC4)NC(=O)[C@H](CCN(C)C(=O)CCC(=O)N[C@H](CC(=O)O)C[N+](C)(C)C)NC3=O)c[nH]c12 [compound 138, HOC18gEPEG2PEG2CO-Pen(3)-N(N(Me)2)-T-7MeW-Dab(NMecarn)-Pen(3)-AEF-2Nal-THP-Dab(NMecarn)-N-3Pya-Sar-CON(Me)2] ({C18 diacid-γGlu-AEEA-AEEA}-[Pen]D(NMe2)T[Trp(7-Me)][X6]([Suc-X2])C[AEF][2Nal][Thp][X6]([Suc-X2])N[3Pal][Sar]-NMe2; disulfide 1-6) | < 50 | < 0.5 |
